The values that follow come from patent US20230098332A1, “HETEROCYCLIC DERIVATIVES AS TRMP8 ANTAGONISTS” (Givaudan SA, priority 2020, published 2023).

SMILES strings stand for the structures. Counter-ions that a name gives are not always drawn.

In one assay the target is T1, hTRPM8 (Homo sapiens, UniProt Q7Z2W7).
T1 construct: expressed in transfected cells
The assay is described as follows: Assay on TRPM8 modulators: calcium imaging (Fluo-4, Flexstation) in HEK293 cell line stably expressing hTRPM8. It counts as cell-based. The following applies: TRPM8 agonist activity, calcium influx, HEK293 stably expressing hTRPM8, sigmoidal dose-response fit. The method, then: A HEK293 cell line stably expressing hTRPM8 was generated according to Klein et al., (Chem. Senses 36: 649-658, 2011) and receptor activation was monitored by calcium imaging in a Flexstation. For Ca-imaging assays of TRPM8 channel activation, cells were seeded on day 0 at a density of 12000 cells per well in Dulbecco's modified Eagle medium (DMEM) containing 9% foetal bovine serum in black, clear bottom 96-well plates that had been coated with 0.001% polyethyleneimine (molecular weight=60 000, Acros Organics). On day 2, agonists were evaluated via calcium imaging using Fluo-4. Briefly, growth medium was discarded, and the cells were incubated in the dark for 1 h at 37° C. in 50 μL loading buffer consisting of 2.7 μM Fluo-4 AM (Invitrogen) and […] probenecid (Sigma-Aldrich) in DMEM (without serum). After incubation, the plates were washed five times with 100 μL of assay buffer (in mM: 130 NaCl, 5 KCl, 10 HEPES, 2 CaCl2, and 10 glucose, pH7.4.) and further incubated in the dark at room temperature for 30 min. The cells were then washed five times with 100 μL assay buffer and then calcium influx to serial dilutions of inventive compounds were measured in a Flexstation 3 (Molecular Devices). Receptor activation was initiated following addition of 20 μl of a 10-fold concentrated ligand stock solution, which is also prepared in assay buffer. Fluorescence was continuously monitored for 15 seconds prior to ligand addition and for 105 seconds after ligand addition, for a total of 120 seconds. Maximal receptor activation in relation to solvent control and relative to 31.6 μM menthol is determined. Data from serial dilutions were processed with a KNIME workflow to fit a sigmoidal dose-response curve and to extrapolate EC50 values.

Assay [1] concerns trained group of panelists. The assay is described as follows: Sensory studies in aqueous solution (trained panelists, cooling in the mouth). It counts as in vivo, human. The following applies: 40 ppm in aqueous solution, 20 mL swilled in the mouth for 60 seconds; for Cooling after 1 hour / Max. cooling: averaged panel score 0-10. Here is the method:
The compounds as listed below in Table 2 were dissolved at a concentration of 1 wt-% in propylene glycol. These solutions were then dispensed in appropriate quantities into deionized water containing 0.5 wt-% Poloxamer 407 (which is a hydrophilic non-ionic surfactant, e.g., commercially available from SigmaAldrich) and 0.25 wt-% Cremaphor® RH40 (obtained from BASF) as solubilizer, to obtain the desired final concentration of 40 ppm (parts per million) of the respective compound.
A trained group of panelists evaluated the aqueous solutions containing test compound by swilling 20 mL of the solution in the mouth for 60 seconds, followed by spitting, without rinsing the mouth afterwards for the duration of the evaluation. Panelists evaluated and recorded the cooling performance as well as other sensorial and organoleptic attributes at different timepoints over a period of two hours. Cooling performance was rated on a scale from 0 to 10 with 0 being no effect and 10 being freezing. Scores were averaged for all panelists and the cooling intensity qualified as “N” for “none” (score of 0), “L” for “low” (score above 0, up to 1), “M” for “medium” (score above 1, up to 4), “S” for “strong” (score above 4, up to 8) and “E” for “extreme” (score above 8), which are provided in Table 2.

T1 sequence (Q7Z2W7 whole entry): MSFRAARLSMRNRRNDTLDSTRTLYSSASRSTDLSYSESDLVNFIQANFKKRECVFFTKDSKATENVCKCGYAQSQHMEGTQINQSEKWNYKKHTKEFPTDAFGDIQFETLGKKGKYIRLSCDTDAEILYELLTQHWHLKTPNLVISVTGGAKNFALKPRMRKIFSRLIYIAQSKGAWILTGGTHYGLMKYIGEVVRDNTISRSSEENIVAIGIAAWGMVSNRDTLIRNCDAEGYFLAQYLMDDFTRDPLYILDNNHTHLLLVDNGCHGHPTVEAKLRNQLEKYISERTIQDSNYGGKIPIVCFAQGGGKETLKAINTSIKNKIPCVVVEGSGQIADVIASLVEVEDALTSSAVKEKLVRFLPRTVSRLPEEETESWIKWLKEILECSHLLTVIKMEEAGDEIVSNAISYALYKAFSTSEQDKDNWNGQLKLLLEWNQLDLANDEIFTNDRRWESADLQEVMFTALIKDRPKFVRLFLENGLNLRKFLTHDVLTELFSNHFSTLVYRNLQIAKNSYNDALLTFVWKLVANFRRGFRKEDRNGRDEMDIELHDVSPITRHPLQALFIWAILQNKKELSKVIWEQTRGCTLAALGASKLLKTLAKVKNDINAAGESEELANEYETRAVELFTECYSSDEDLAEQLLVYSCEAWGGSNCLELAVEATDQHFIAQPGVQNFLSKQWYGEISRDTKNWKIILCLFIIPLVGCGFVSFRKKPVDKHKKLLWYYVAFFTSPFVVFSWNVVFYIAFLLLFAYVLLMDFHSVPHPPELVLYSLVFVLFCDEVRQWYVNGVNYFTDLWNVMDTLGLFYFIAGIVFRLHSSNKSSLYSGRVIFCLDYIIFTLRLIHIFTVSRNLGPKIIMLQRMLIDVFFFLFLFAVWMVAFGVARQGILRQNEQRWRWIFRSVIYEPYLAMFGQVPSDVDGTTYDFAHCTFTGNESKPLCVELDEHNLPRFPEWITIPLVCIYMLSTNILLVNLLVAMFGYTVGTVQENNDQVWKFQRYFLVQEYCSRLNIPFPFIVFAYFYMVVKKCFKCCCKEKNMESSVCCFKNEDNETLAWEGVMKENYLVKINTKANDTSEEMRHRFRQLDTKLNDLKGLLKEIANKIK

A word on the EC50: it is the concentration giving half of the maximal effect. For `Cc1ccc(OCCN2CCOCC2)c(Cc2ccccc2)c1.Cl` [compound 159, 4-(2-(2-benzyl-4-methylphenoxy)ethyl)morpholine hydrochloride], the EC50 on hTRPM8 is 1 to 35 µM. In addition, in assay [1], the “Time of max. cooling” value came out at 5 min; the “Cooling after 1 hour” value was “L (“L” for “low” (score above 0, up to 1))”; the Max. cooling entry is “M (“M” for “medium” (score above 1, up to 4))”.

For the molecule `Cc1ccc(OCCN2CC(C)N(C)C(C)C2)c(Cc2ccccc2)c1` (centres unmarked) [compound 158, 4-(2-(2-benzyl-4-methylphenoxy)ethyl)-1,2,6-trimethylpiperazine], the EC50 on hTRPM8 was 0.3 to 1 µM. In assay [1], the “Time of max. cooling” value came out at 30 min; the “Cooling after 1 hour” value is listed as “M (“M” for “medium” (score above 1, up to 4))”; the Max. cooling entry is reported as “M (“M” for “medium” (score above 1, up to 4))”.

Turning to `Cc1ccc(CCCN2CCN(C)CC2)c(Cc2ccccc2)c1` [compound 100, 1-(3-(2-benzyl-4-methylphenyl)propyl)-4-methylpiperazine], the EC50 at hTRPM8 was 0.3 to 1 µM. For the same molecule, in assay [1], the “Time of max. cooling” value was 10 min; the “Cooling after 1 hour” value was “M (“M” for “medium” (score above 1, up to 4))”; the Max. cooling result was “M (“M” for “medium” (score above 1, up to 4))”.

As for `Cc1cc(C)c(OCCC2CCOCC2)c(Cc2ccccc2C#N)c1` [compound 119, 2-(3,5-dimethyl-2-(2-(tetrahydro-2H-pyran-4-yl)ethoxy)benzyl)benzonitrile], the EC50 at hTRPM8 was in the range of 0.05 to 0.3 µM. In assay [1], the “Time of max. cooling” value turned out to be 10 min; the “Cooling after 1 hour” value is listed as “L (“L” for “low” (score above 0, up to 1))”; the Max. cooling entry was “M (“M” for “medium” (score above 1, up to 4))”.

`Cc1ccc(OC(C)CN2CCN(C)CC2)c(Cc2ccccc2)c1` (centres unmarked) [compound 90, 1-(2-(2-benzyl-4-methylphenoxy)propyl)-4-methylpiperazine]: on hTRPM8, the EC50 was 0.3 to 1 µM. Further, in assay [1], the “Time of max. cooling” value turned out to be 10 min; the “Cooling after 1 hour” value was “M (“M” for “medium” (score above 1, up to 4))”; the Max. cooling entry is reported as “M (“M” for “medium” (score above 1, up to 4))”.

On to `CC1=C(OCCN2CCN(C)CC2)/C(=C/c2ccccc2)CC(C)C1` (centres unmarked) [compound 43, (E)-1-(2-((6-benzylidene-2,4-dimethylcyclohex-1-en-1-yl)oxy)ethyl)-4-methylpiperazine], for which the EC50 at hTRPM8 is 1 to 35 µM.

As to `Cc1cccc(Cc2cc(C)ccc2OCCN2CCN(C)CC2)c1` [compound 104, 1-methyl-4-(2-(4-methyl-2-(3-methylbenzyl)phenoxy)ethyl)piperazine], the EC50 on hTRPM8 lay within 1 to 35 µM.

As for `Cc1cc(C)c(OCCN2CCOCC2)c(Cc2cc(F)cc(F)c2)c1` [compound 154, 4-(2-(2-(3,5-difluorobenzyl)-4,6-dimethylphenoxy)ethyl)morpholine], on hTRPM8, the EC50 lay within 0.3 to 1 µM.

As to `Cc1cc(C)c(OCCN2CCN(C)CC2)c(Cc2ccccc2)c1` [compound 70, 1-(2-(2-benzyl-4,6-dimethylphenoxy)ethyl)-4-methylpiperazine], the EC50 at hTRPM8 lay within 0.3 to 1 µM.

Regarding `Cc1ccc(OCCN2CCOCC2)c(/C=C2\CCCCC2=O)c1` [compound 47, (E)-2-(5-methyl-2-(2-morpholinoethoxy)benzylidene)cyclohexan-1-one], the EC50 on hTRPM8 was in the range of 0.05 to 0.3 µM.

As to `Cc1ccc(OCCN2CCN(C)CC2)c(Cc2ccccc2)c1` [compound 77, 1-(2-(2-benzyl-4-methylphenoxy)ethyl)-4-methylpiperazine], the EC50 on hTRPM8 lay in the range of 0.3 to 1 µM. In assay [1], the “Time of max. cooling” value amounted to 10 min; the “Cooling after 1 hour” value is listed as “M (“M” for “medium” (score above 1, up to 4))”; the Max. cooling result is given as “M (“M” for “medium” (score above 1, up to 4))”.

As for `COc1cccc(OCCN2CCN(C)CC2)c1Cc1ccccc1` [compound 67, 1-(2-(2-benzyl-3-methoxyphenoxy)ethyl)-4-methylpiperazine], the EC50 on hTRPM8 lay within 1 to 35 µM.

Take `CCOC(=O)c1ccc(Cc2cc(C)cc(C)c2OCCN2CCN(C)CC2)cc1` [compound 164, ethyl 4-(3,5-dimethyl-2-(2-(4-methylpiperazin-1-yl)ethoxy)benzyl)benzoate dihydrochloride]: the EC50 on hTRPM8 lay in the range of 1 to 35 µM.

Consider `Cc1cc(C)c(OC(C)CN2CCN(C)CC2)c(Cc2ccccc2C#N)c1` (centres unmarked) [compound 116, 2-(3,5-dimethyl-2-((1-(4-methylpiperazin-1-yl)propan-2-yl)oxy)benzyl)benzonitrile hydrochloride], for which, on hTRPM8, the EC50 lay in the range of 0.05 to 0.3 µM.

For `Cc1ccc(CCN2CCN(C)CC2)c(Cc2ccccc2)c1` [compound 96, 1-(2-benzyl-4-methylphenethyl)-4-methylpiperazine], at hTRPM8, the EC50 fell in the range of 1 to 35 µM.

As for `Cc1cc(C)c(OCCN2CCOCC2)c(Cc2ccccc2N)c1` [compound 121, 2-(3,5-dimethyl-2-(2-morpholinoethoxy)benzyl)aniline], the EC50 at hTRPM8 was 1 to 35 µM.

With `Cc1cc(C)c(OCCN2CCN(C)CC2)c(Cc2ccccc2C#N)c1` [compound 117, 2-(3,5-dimethyl-2-(2-(4-methylpiperazin-1-yl)ethoxy)benzyl)benzonitrile], the EC50 at hTRPM8 is 0.05 to 0.3 µM.

Regarding `Cc1ccc(N(C)CCN2CCOCC2)c(Cc2ccccc2)c1` [compound 138, 2-benzyl-N,4-dimethyl-N-(2-morpholinoethyl)aniline], the EC50 at hTRPM8 is 0.05 to 0.3 µM.

On to `C=C(c1ccccc1F)c1cc(C)cc(C)c1OCCN1CCOCC1` [compound 145, 4-(2-(2-(1-(2-fluorophenyl)vinyl)-4,6-dimethylphenoxy)ethyl)morpholine], for which the EC50 at hTRPM8 lay within 0.3 to 1 µM.

For the molecule `Cc1ccc(OCCN2CCN(C)CC2)c(Cc2ccccc2C)c1` [compound 103, 1-methyl-4-(2-(4-methyl-2-(2-methylbenzyl)phenoxy)ethyl)piperazine], the EC50 at hTRPM8 lay in the range of 0.3 to 1 µM.

For `Cc1cc(C)c(OCCN2CCN(C)CC2)c(Cc2ccccc2I)c1` [compound 57, 1-(2-(2-(2-iodobenzyl)-4,6-dimethylphenoxy)ethyl)-4-methylpiperazine], on hTRPM8, the EC50 lay in the range of 0.3 to 1 µM.

As to `COc1cc(C(C)(C)C)cc(Cc2ccccc2)c1OCCN1CCN(C)CC1` [compound 69, 1-(2-(2-benzyl-4-(tert-butyl)-6-methoxyphenoxy)ethyl)-4-methylpiperazine], the EC50 at hTRPM8 is 1 to 35 µM.

As to `Cc1ccc(OC(=O)CN2CCN(C)CC2)c(Cc2ccccc2)c1` [compound 136, 2-benzyl-4-methylphenyl 2-(4-methylpiperazin-1-yl)acetate], the EC50 on hTRPM8 lay within 1 to 35 µM.

Take `Cc1cc(C)c(OC(C)CN2CCOCC2)c(Cc2c(F)cccc2F)c1` (centres unmarked) [compound 150, 4-(2-(2-(2,6-difluorobenzyl)-4,6-dimethylphenoxy)propyl)morpholine]: the EC50 at hTRPM8 lay in the range of 0.3 to 1 µM.

Consider `CC1CCC(OCCN2CCN(C)CC2)C(Cc2ccccc2)C1` (centres unmarked) [compound 52, 1-(2-((2-benzyl-4-methylcyclohexyl)oxy)ethyl)-4-methylpiperazine dihydrochloride], for which, on hTRPM8, the EC50 fell in the range of 1 to 35 µM.

As to `COC(=O)c1ccc(OCCN2CCN(C)CC2)c(Cc2ccccc2)c1` [compound 165, methyl 3-benzyl-4-(2-(4-methylpiperazin-1-yl)ethoxy)benzoate], the concentration giving a half-maximal response (EC50) on hTRPM8 was in the range of 1 to 35 µM.

For the molecule `Cc1cc(C)c(N(C)CCN2CCOCC2)c(Cc2ccccc2F)c1` [compound 113, 2-(2-fluorobenzyl)-N,4,6-trimethyl-N-(2-morpholinoethyl)aniline], the EC50 at hTRPM8 fell in the range of 0.3 to 1 µM.

For `Cc1cc(C)c(OCC(C)N2CCOCC2)c(Cc2c(F)cccc2F)c1` (centres unmarked) [compound 143, 4-(1-(2-(2,6-difluorobenzyl)-4,6-dimethylphenoxy)propan-2-yl)morpholine], the EC50 at hTRPM8 lay in the range of 0.05 to 0.3 µM.

In the case of `Cc1ccc(OCCN2CCN(C)CC2)c(Cc2cccs2)c1` [compound 105, 1-methyl-4-(2-(4-methyl-2-(thiophen-2-ylmethyl)phenoxy)ethyl)piperazine hydrochloride], at hTRPM8, the EC50 lay within 0.3 to 1 µM.
